Here are results for 15 compounds from ChEMBL document CHEMBL3856182, “How much successful are the medicinal chemists in modulation of SIRT1: A critical review” (Eur J Med Chem, 2016).

By IC50 is commonly meant the midpoint of a concentration-inhibition curve. In general, bioavailability refers to the share of a dose that reaches the circulation, judged against a reference dose that is usually intravenous.

Molecules are shown by their SMILES.

Series [1] deals with T1, NAD-dependent protein deacetylase sirtuin-1 (Homo sapiens, UniProt Q96EB6).
T1 sequence (Q96EB6 whole entry): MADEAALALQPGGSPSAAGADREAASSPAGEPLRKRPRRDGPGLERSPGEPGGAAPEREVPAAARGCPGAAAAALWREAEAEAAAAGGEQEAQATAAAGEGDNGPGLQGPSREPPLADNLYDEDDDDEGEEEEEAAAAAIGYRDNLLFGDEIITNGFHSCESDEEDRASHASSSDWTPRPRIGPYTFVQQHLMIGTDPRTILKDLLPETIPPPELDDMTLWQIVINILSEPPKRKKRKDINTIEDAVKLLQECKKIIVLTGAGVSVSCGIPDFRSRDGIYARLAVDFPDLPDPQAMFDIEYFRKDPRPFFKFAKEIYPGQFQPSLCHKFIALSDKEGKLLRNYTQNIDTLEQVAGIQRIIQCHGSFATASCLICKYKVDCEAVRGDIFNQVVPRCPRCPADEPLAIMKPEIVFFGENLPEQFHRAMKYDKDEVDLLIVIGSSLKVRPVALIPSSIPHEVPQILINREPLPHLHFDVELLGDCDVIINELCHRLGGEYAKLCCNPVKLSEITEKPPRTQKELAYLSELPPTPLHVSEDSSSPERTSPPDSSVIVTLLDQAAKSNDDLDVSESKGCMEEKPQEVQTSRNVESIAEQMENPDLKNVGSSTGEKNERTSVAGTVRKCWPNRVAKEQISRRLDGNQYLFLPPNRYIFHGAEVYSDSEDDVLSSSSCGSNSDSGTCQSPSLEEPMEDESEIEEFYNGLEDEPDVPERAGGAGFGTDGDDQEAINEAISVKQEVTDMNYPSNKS
Description: Inhibition of recombinant human SIRT1 (193 to 747 residues) expressed in Escherichia coli BL21 (DE3) using AMC-labeled p53-derived acetylated lysine as substrate in presence of NAD+ by HTS assay.

In another series the test system is Saccharomyces cerevisiae. In words: Growth inhibition of yeast.
For series [2], the target named is T1, NAD-dependent protein deacetylase sirtuin-1. Description: Inhibition of recombinant human GST-tagged SIRT1 overexpressed in Escherichia coli DH5alpha assessed as deacetylation activity using [3H]-MPSDKTIGG as substrate measured after overnight incubation by liquid scintillation counting method.
In series [3] the target is T2, NAD-dependent protein deacetylase sirtuin-2 (Homo sapiens, UniProt Q8IXJ6).
T2 sequence (Q8IXJ6 whole entry): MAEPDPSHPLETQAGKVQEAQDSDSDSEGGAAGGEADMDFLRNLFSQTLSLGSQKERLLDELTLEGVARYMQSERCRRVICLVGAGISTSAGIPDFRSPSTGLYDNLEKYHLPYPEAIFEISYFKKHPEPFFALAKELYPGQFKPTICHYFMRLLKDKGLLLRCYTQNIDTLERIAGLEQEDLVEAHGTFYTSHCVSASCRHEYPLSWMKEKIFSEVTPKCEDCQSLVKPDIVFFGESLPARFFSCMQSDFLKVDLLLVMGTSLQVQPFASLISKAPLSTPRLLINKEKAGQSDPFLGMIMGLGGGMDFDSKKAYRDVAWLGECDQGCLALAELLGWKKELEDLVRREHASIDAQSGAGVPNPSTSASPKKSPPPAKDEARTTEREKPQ
In words: Inhibition of recombinant human GST-tagged SIRT2 overexpressed in Escherichia coli DH5alpha assessed as deacetylation activity using [3H]-MPSDKTIGG as substrate measured after overnight incubation by liquid scintillation counting method.

Series [4] concerns the target T1, NAD-dependent protein deacetylase sirtuin-1. Description: Inhibition of recombinant SIRT1 (unknown origin) assessed as deacetylation activity using acetylated p53 as substrate measured after 2 hrs by Fluor de Lys assay.
For series [5], the target named is T2, NAD-dependent protein deacetylase sirtuin-2. In words: Inhibition of human N-terminal 6His-tagged SIRT2 assessed as inhibition of deacetylase activity using ZMAL as substrate measured after 4 hrs by Fluor de Lys assay.
Series [6] has as its target T1, NAD-dependent protein deacetylase sirtuin-1. Description: Inhibition of recombinant human SIRT1 assessed as inhibition of deacetylase activity using ZMAL as substrate measured after 4 hrs by Fluor de Lys assay.
The target in series [7] is T2, NAD-dependent protein deacetylase sirtuin-2. Description: Inhibition of full-length human N-terminal His6-tagged SIRT2 expressed in Escherichia coli BL21 (DE3) assessed as inhibition of deacetylase activity using ZMAL as substrate measured after 4 hrs by Fluor de Lys assay.
The target in series [8] is T1, NAD-dependent protein deacetylase sirtuin-1. In words: Inhibition of human SIRT1 using biotinylated peptide with an acetylated FLAG sequence as substrate measured after 3 hr in presence of NAD+ by TR-FRET assay. (In general: Time-resolved FRET reads energy transfer from a long-lived donor to a nearby acceptor.)
Series [9] deals with T2, NAD-dependent protein deacetylase sirtuin-2. Description: Inhibition of human SIRT2 using biotin labeled histone H4 peptide with an acetylated lysine 4 as substrate measured after 1 hr by luminescence analysis.
In series [10] the target is T3, NAD-dependent protein deacetylase sirtuin-1 (Homo sapiens) (UniProt Q96EB6).
T3 sequence (whole entry): T1 sequence (Q96EB6 whole entry)
Description: Activation of recombinant human SIRT1 using TPE-GK(Ac)YDD as substrate at 50 uM by fluorescence assay relative to control.

The target of series [11] is T1, NAD-dependent protein deacetylase sirtuin-1. In words: Inhibition of full-length human N-terminal GST-tagged SIRT1 expressed in Escherichia coli BL21 (DE3) assessed as inhibition of deacetylase activity using ZMAL as substrate measured after 4 hrs by Fluor de Lys assay.
Series [12] is described as follows: Drug absorption in human at 50 uCi, po up to 12 hrs using 14C-labeled compound by scintillation counting method. Format: ADME, organism-based. To be noted: in vivo.
Series [13] can be described thus: Oral bioavailability in human at 50 uCi up to 12 hrs using 14C-labeled compound by scintillation counting method. The series is classed as ADME, organism-based. To be noted: in vivo.
A short description of series [14]: Oral bioavailability in rat at 50 or 150 mg/kg/day administered through gavage for 14 consecutive days by HPLC analysis. The series is classed as ADME, organism-based. Particulars: in vivo.
A short description of series [15]: Oral bioavailability in rat at 56 or 168 mg/kg/day administered through gavage for 14 consecutive days by HPLC analysis. The series is classed as ADME, organism-based. To be noted: in vivo.

Consider `Fc1cccc(-n2cc(CSC(=S)N3CCN(C(=S)SCc4cn(-c5ccccc5F)nn4)CC3)nn2)c1`, for which the half-inhibitory concentration (IC50) in series [1] was 1.08 µM.
`CN(C)CCCCC(=O)Nc1ccc(NC(=S)NC(=O)c2ccc(C(C)(C)C)cc2)cc1` returned an IC50 in the series on Saccharomyces cerevisiae of 30 µM.
As for `CC(C)=CCC[C@]1(C)[C@@H](CC=C(C)C)C[C@]2(CC=C(C)C)C(=O)C(CC=C(C)C)=C(O)[C@@]1(C(=O)C(C)C)C2=O`, the values for the IC50 in series [2] and in series [3] were 15 µM and 28 µM, respectively.
On to `Cc1ccc2[nH]c3c(c2c1)CCCC3C(=O)O` (stereo not drawn), for which the IC50 in series [4] was determined as 3.1 µM.
With `O=C1CC(=S)NC(=O)/C1=C/c1cc2ccccc2[nH]1`, the results for the half-maximal inhibitory concentration (IC50) in [5] and in series [6] were under 20.3 µM and 5.9 µM, respectively.
With `CC(C)=CCC/C(C)=C/C[C@@H]1C[C@]2(CC=C(C)C)C(=O)[C@@](CC=C(C)C)(C(=O)C(Cc3ccc(O)c(O)c3)=C2O)[C@@]1(C)CCC=C(C)C`, the IC50 in [2] worked out at 9 µM; in series [3], 22 µM.
For the compound `CC1=CCC(C(=O)/N=C2\CC=C(S(=O)(=O)O)c3cc(S(=O)(=O)O)cc(S(=O)(=O)O)c32)=C/C1=N/C(=O)C1=CC=C/C(=N\C(=O)/N=C2\C=CC=C(C(=O)/N=C3/CC(C(=O)/N=C4\CC=C(S(=O)(=O)O)c5cc(S(=O)(=O)O)cc(S(=O)(=O)O)c54)=CC=C3C)C2)C1`, in series [7], the concentration for half-maximal inhibition (IC50) worked out at 1.15 µM.
As to `Cc1ccc(-c2nc3c(=O)n(C)c(=O)nc-3n(C)n2)cc1`, the IC50 is 0.11 µM in series [8] and over 100 µM in series [9].
As to `CC(C)=CCC[C@](C)(O[C@@H]1O[C@H](CO)[C@@H](O)[C@H](O)[C@H]1O)[C@H]1CC[C@]2(C)[C@@H]1[C@H](O)C[C@@H]1[C@@]3(C)CC[C@H](O)C(C)(C)[C@@H]3[C@@H](O)C[C@]12C`, in series [10], the Activity came to 28%.
For `Nc1cc(NC(=O)Nc2cccc(C(=O)Nc3cccc(C(=O)Nc4ccc(S(=O)(=O)O)c5cc(S(=O)(=O)O)cc(S(=O)(=O)O)c45)c3)c2)cc(C(=O)Nc2cccc(C(=O)Nc3ccc(S(=O)(=O)O)c4cc(S(=O)(=O)O)cc(S(=O)(=O)O)c34)c2)c1`, the IC50 is 0.093 µM in series [11] and 2.26 µM in series [7].
In the case of `Cn1ncnc2c(=O)n(C)c(=O)nc1-2`, the IC50 worked out at 0.87 µM in series [8] and 14.4 µM in series [9].
For the compound `Oc1ccc(/C=C/c2cc(O)cc(O)c2)cc1` [RESVERATROL], in series [12], the Fabs turned out to be 70%. The same compound yielded a F in [13] of 0.5%. In [14], this compound registered a bioavailability of 20%.
As to `COc1cc(/C=C/c2ccc(O)cc2)cc(OC)c1` [PTEROSTILBENE], the bioavailability in series [15] turned out to be 80%.
As to `CC(C)=CCC[C@](C)(O[C@@H]1O[C@H](CO[C@@H]2O[C@@H](CO)[C@H](O)[C@H]2O)[C@@H](O)[C@H](O)[C@H]1O)[C@H]1CC[C@]2(C)[C@@H]1[C@H](O)C[C@@H]1[C@@]3(C)CC[C@H](O[C@@H]4O[C@H](CO)[C@@H](O)[C@H](O)[C@H]4O[C@@H]4O[C@H](CO)[C@@H](O)[C@H](O)[C@H]4O)C(C)(C)[C@@H]3CC[C@]12C`, in series [10], the Activity worked out at 88%.
Regarding `CN(C)/C=N/C(=O)C1CCCc2c1[nH]c1ccc(Cl)cc21` (stereo not drawn), in series [4], the IC50 was 0.149 µM.
